The subject of data set [1] is PDE5. Also noted: method as in PMID 29656464. Particulars: Figure 1; cited from earlier work.
The test system of data set [2] is CCD-966SK. Kind of data set: MTT cell proliferation assay, CCD-966SK. Particulars: CCD966SK skin fibroblast; 10 µM; 72 h MTT.
Protocol: (§1) In the MTT assay, 96-well culture plates were used. A total of 7 × 10^4 cells per well were seeded, and test materials were added to the cells at various concentrations [47, 48]. Human cancer and non-cancer cell lines were purchased commercially from the American Type Culture Collection (ATCC). After 72 h, the cytotoxicity of the compounds and paclitaxel (as a positive control group) was detected using the MTT method (thiazolyl blue tetrazolium bromide, Sigma-M2128). Absorbance values at 570 and 620 nm (OD = OD570–OD620) were measured using an ELISA reader (Anthos Labtec Instruments, Salzburg, Austria).
Data set [3] concerns HCT-116. In words: MTT cell proliferation assay, HCT-116. The note with it: for % Inhibition at 10 µM: 72 h MTT, means ± SD. On the technique in general: Tetrazolium dyes change colour on reduction, which living cells bring about.
Protocol: as §1
In data set [4] the target is T1, PDE5A (Homo sapiens, UniProt O76074).
T1 construct: purchased BPS Bioscience, San Diego, CA, USA
In words: Phosphodiesterase 5 HTRF cGMP assay. The class given is biochemical. As for the experimental part: All the synthesized acridine derivatives were tested for their in vitro ability to inhibit PDE5A at a screening dose of 10 µM.
The enzyme activities of phosphodiesterase 5 (PDE5) were measured using an HTRF cGMP assay kit (Cisbio, Codolet, France). […] Afterward, the HTRF reagent (cGMP-d2 and anti-cGMP-cryptate) was added for 1 h at 25 °C, and PDE activity was assayed on an HTRF reader (Tecan Infinite F200 Pro).
(In TR-FRET formats the signal depends on donor and acceptor labels being close together.)

The term IC50 denotes the concentration at which inhibition is half-maximal. As usually defined, the % Inhibition is the relative decrease from the control value, in per cent. Lower therefore signals a weak effect. What is called inhibition is the relative decrease from the control value, in per cent. By melting point is commonly meant the temperature, or range, at which the solid turns liquid.

As to `c1ccc(CNc2ncnc3sc4c(c23)CCC4)cc1` [C], the IC50 in data set [1] is 420 nM.

For `N.N.[Cl][Pt][Cl]` [cisplatin, reference compound], the figures for the “% Inhibition at 10 µM” value in data set [2] and in data set [3] were 38.73 ± 5.19% and 83.00 ± 0.38%, respectively. For the same molecule, the IC50 in data set [3] (read-out: IC50 μM, 72 h MTT, means ± SD, three experiments) came out at 3.62 ± 0.19 µM.

On to `c1ccc(CNc2ncnc3sc4c(c23)CCCCC4)cc1` [B], for which the IC50 in data set [1] is 190 nM.

The molecule `c1csc(CNc2c3ccccc3nc3ccccc23)c1` [Compound 15, Acridin-9-yl-thiophen-2-ylmethyl-amine] had a melting point of 121 to 123 °C. Besides, the “% Inhibition at 10 µM” value in data set [2] came out at 11.54 ± 0.04%. For the same molecule, the “% Inhibition at 10 µM” value in data set [3] stood at 39.65 ± 4.72%. The IC50 in data set [4] (means ± S.D. (n = 4), read-out: PDE5 IC50) is 6430 ± 1300 nM. Further, in data set [4] (read-out: PDE5 % Inhibition at 10 μM), the inhibition at 10 µM is 58.4 ± 1.47%.

These data come from article PMC9866191, “Novel 9-Benzylaminoacridine Derivatives as Dual Inhibitors of Phosphodiesterase 5 and Topoisomerase II for the Treatment of Colon Cancer” (Molecules, 2023).
